Experimental findings from ChEMBL document CHEMBL6087456 (J Med Chem, 2025) are described below.

One series addresses Albumin (Homo sapiens, UniProt P02768). The experiment in a line: Protein binding to albumin (unknown origin) in ALBUMAX medium. The format is ADME. The settings on record: read-out: PB (converted).
Series [1] is described as follows: Toxicity in humanized SCID mouse model infected with erythrocyte asexual stage Plasmodium falciparum 3D7 0087/N9 assessed as drug tolerance at 1 to 30 mg/kg administered once daily for 6 days. The format is organism-based. Particulars: in vivo, dose 1-30 mg/kg, time 6 day.
Series [2] relates to Plasmodium falciparum. The experiment in a line: Prevention of terminal maturation of schizonts in humanized SCID mouse model infected with erythrocyte asexual stage Plasmodium falciparum 3D7 0087/N9 at 1 to 30 mg/kg administered once daily for 6 days. The format is functional, organism-based. Particulars: dose 1-30 mg/kg, time 6.0 day.
Series [3] can be described thus: Permeability across apical to basal side in human Caco-2 cells. The format is ADME, cell-based. On the technique in general: Passage across Caco-2 layers is used to estimate intestinal permeability.
The nature of series [4]: Protein binding in human hepatocytes. The format is ADME, cell-based, Hepatocyte. Particulars: read-out: PB (converted).
A further series has as its target Cytochrome P450 3A5 (Homo sapiens, UniProt P20815). The experiment in a line: Time-dependent inhibition of CYP3A5 in human liver microsomes. The format is ADME, Microsome. (In general: Liver microsomes are a subcellular fraction often used to study metabolism.)
For series [5], the system named is Plasmodium falciparum. The experiment in a line: Antimalarial activity against erythrocyte asexual stage Plasmodium falciparum 3D7 0087/N9 infected in humanized SCID mouse model assessed as inhibition of maturation of trophozoites to schizonts at first life cycle at 1 to 30 mg/kg administered once daily measured after 48 hrs. The format is functional, organism-based. The settings on record: dose 1-30 mg/kg.

The nature of series [6]: Cytotoxicity against human Jurkat cells by Cell Titer Glo assay. The format is toxicity, cell-based.
In series [7] the target is T1, Cytochrome P450 2D6 (Homo sapiens, UniProt P10635). Kind of series: Inhibition of CYP2D6 in human liver microsomes. The format is ADME, Microsome.
Series [8] relates to Plasmodium falciparum. Kind of series: Prevention of pyknosis of rings in humanized SCID mouse model infected with erythrocyte asexual stage Plasmodium falciparum 3D7 0087/N9 at 1 to 30 mg/kg administered once daily for 6 days measured after 96 to […] post-dose. The format is functional, organism-based. The settings on record: dose 1-30 mg/kg, time 6.0 day.
Series [9] deals with T1, Cytochrome P450 2D6. Kind of series: Time-dependent inhibition of CYP2D6 in human liver microsomes. The format is ADME, Microsome.
The subject of series [10] is Plasmodium falciparum. Kind of series: Antiparasitic activity against Plasmodium falciparum 3D7 assessed as parasitic reduction ratio at 10 times EC50 pretreated for 120 hrs followed by compound removal and replacement of media without compound measured after 28 days by cell killing assay. The format is functional.
The nature of series [11]: Plasma protein binding in rat measured for 6 hrs by rapid equilibrium dialysis. The format is ADME, cell-free. (In equilibrium dialysis free small molecules cross a membrane that holds back macromolecules.)
Series [12] has as its target T2, Dihydroorotate dehydrogenase (quinone), mitochondrial (Plasmodium falciparum (isolate 3D7), UniProt Q08210).
T2 sequence (Q08210 whole entry): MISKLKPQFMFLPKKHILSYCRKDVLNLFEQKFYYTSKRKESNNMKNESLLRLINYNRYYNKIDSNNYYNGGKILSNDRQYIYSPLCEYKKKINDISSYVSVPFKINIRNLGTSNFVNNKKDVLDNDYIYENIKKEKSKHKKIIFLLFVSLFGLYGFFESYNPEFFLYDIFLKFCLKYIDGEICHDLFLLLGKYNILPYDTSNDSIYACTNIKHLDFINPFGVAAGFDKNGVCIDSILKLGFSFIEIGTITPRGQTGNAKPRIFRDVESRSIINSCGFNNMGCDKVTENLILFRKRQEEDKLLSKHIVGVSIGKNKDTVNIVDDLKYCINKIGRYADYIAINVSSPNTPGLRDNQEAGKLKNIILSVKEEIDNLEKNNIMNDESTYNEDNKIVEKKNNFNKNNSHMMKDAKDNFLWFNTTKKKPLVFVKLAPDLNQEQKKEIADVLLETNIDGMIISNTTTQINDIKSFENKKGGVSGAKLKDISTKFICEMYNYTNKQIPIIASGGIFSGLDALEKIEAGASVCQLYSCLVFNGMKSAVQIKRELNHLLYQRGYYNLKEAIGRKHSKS
Kind of series: Inhibition of N-terminal His6-tagged recombinant Plasmodium falciparum DHODH (158 to 569 residues) N-terminally truncated soluble domain extracted from Escherichia coli phage resistant BL21-DE3 using CoQD/DHA/DCIP as substrates.

Series [13] in a line: Apparent half life in humanized SCID mouse model at 30 mg/kg, po. The format is ADME, organism-based. The settings on record: in vivo, read-out: t1/2(app) (converted).
A further series has as its target Cytochrome P450 2C9 (Homo sapiens, UniProt P11712). The experiment in a line: Time-dependent inhibition of CYP2C9 in human liver microsomes. The format is ADME, Microsome.
Series [14] in a line: Drug excretion in Sprague-Dawley rat urine at 1 mg/kg, iv. The settings on record: read-out: Drug excretion. The format is ADME, organism-based.

pIC50: −log10 of the molar value. Activity calls are given as the source filed them. The calls are words filed in the database; no cut-off is given here.

T1 sequence (P10635 whole entry): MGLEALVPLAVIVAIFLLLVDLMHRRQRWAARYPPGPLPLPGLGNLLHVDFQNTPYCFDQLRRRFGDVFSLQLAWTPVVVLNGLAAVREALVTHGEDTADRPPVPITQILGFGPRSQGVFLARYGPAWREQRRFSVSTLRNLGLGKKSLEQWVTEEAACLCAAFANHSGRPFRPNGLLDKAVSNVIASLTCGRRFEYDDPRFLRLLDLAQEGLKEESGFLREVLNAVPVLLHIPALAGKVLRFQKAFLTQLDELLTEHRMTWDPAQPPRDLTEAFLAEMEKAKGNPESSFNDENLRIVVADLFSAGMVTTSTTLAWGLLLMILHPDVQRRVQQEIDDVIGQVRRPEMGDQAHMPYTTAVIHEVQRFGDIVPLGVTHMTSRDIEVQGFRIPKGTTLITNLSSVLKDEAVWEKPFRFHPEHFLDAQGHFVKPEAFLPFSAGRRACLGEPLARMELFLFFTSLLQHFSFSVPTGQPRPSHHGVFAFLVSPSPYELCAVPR
Sequence of Cytochrome P450 3A5 (P20815 whole entry): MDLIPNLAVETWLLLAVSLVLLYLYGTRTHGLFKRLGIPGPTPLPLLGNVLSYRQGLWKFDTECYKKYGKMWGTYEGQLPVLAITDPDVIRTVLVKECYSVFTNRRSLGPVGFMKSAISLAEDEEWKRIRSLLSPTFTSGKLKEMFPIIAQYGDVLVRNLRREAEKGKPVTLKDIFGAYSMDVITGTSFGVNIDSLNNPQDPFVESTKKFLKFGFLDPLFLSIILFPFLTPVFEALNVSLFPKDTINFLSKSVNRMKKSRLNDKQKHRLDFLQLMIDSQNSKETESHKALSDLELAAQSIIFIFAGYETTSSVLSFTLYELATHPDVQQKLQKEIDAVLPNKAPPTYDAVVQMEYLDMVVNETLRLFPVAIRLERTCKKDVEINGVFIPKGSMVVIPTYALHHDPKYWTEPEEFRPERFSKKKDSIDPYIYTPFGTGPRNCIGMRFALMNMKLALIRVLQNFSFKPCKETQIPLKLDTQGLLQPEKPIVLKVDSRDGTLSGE
Sequence of Cytochrome P450 2C9 (P11712 whole entry): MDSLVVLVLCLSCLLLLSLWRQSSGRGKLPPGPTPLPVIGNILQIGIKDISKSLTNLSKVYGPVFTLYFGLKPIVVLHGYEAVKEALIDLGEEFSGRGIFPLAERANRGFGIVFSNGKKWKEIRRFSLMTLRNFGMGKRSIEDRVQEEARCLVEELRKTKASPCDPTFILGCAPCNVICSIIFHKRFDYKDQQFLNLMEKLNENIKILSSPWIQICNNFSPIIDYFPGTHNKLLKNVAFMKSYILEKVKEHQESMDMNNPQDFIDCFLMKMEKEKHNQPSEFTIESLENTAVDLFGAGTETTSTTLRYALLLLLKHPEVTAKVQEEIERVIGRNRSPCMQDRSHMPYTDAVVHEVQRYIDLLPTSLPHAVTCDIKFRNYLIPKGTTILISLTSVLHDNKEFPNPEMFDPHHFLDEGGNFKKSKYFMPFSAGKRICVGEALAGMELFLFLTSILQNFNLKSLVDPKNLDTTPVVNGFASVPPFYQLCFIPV
Sequence of Albumin (P02768 whole entry): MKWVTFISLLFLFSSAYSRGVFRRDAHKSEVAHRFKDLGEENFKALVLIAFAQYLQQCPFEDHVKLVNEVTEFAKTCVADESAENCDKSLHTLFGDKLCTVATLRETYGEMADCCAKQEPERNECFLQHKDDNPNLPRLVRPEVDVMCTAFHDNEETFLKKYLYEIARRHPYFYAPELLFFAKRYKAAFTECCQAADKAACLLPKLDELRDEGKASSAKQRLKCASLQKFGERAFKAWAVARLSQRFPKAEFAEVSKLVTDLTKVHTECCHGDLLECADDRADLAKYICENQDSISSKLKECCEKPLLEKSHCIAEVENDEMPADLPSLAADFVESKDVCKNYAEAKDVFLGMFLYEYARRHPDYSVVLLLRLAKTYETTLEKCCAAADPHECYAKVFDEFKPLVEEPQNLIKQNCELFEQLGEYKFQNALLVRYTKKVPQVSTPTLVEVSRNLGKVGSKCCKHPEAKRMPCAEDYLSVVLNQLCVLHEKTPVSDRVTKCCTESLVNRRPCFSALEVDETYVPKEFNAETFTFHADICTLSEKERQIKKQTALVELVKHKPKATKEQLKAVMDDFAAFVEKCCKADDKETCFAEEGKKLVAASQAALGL

Take `Cn1nc2c(=O)n(C3CC3)cnc2c1[C@](O)(c1cnc(C(F)(F)F)c(Cl)c1)C(F)(F)F`: the fraction unbound at Albumin was 0.514; in [4], 0.535. Also, the Activity result in series [1] is “Non-toxic”. Further, the outcome in the series with Plasmodium falciparum [2] and in the series on Plasmodium falciparum [8] was inactive. Moreover, the permeability entry in series [3] was “Permeable”. For the same compound, the TDI entry on Cytochrome P450 3A5, at Cytochrome P450 2D6 [9] and on Cytochrome P450 2C9 was “Not_active” in each case. For the same compound, the result in the series with Plasmodium falciparum [5] was Active. The CC50 (as a rule, the concentration that lowers cell viability or growth by half) in series [6] was > 20 µM. The negative logarithm of the IC50 (pIC50) (as a rule, the IC50 on a negative log10 scale, so that one unit is a factor of ten) against Cytochrome P450 2D6 [7] was < 4.70; in series [12], 7.82. In addition, in the series on Plasmodium falciparum [10], the “log(activity)” value is 2.9. This compound yielded a PPB in series [11] of 97.2%. Besides, in series [13], the half-life was 468 min. Further, the dose excreted in series [14] is < 1%.
